Laboratory results published in patent US20070265271A1, “Novel Diazabicyclic Aryl Derivatives as Cholinergy Ligands” (priority 2004, published 2007).

Row | Structure (SMILES) | melting point [°C]
1 | CN1C2CCC1CN(C(=O)c1ccc(-c3cccc(C(F)(F)F)c3)o1)C2.O=C(O)/C=C/C(=O)O | 108.7 to 109.4
2 | CN1C2CCC1CN(C(=O)c1cc3ccccc3o1)C2.O=C(O)/C=C/C(=O)O | 150 to 155
3 | CN1C2CCC1CN(C(=O)c1ccc(-c3ccccc3)cc1)C2.O=C(O)/C=C/C(=O)O | 197 to 207
4 | CC(=O)Nc1cccc(-c2ccc(C(=O)N3CC4CCC(C3)N4C)o2)c1.O=C(O)/C=C/C(=O)O | 189 to 193
